Reference: US4908360A, “1-aminoalkyl-3-oxysubstituted-4-aryl-1,3,4,5-tetr ahydro-2H-1,3-benzodiazepine-2-ones” (Hoechst-Roussel Pharmaceuticals Inc., priority 1988, dated 1990)

Legend:
[1] = test system: 2-phenyl-1,4-benzoquinone-induced writhing in mice; test: 2-phenyl-1,4-benzoquinone-induced writhing test in mice (analgesia); assay type: in vivo; conditions: subcutaneous
Description: Compounds of the present invention are useful as analgesic agents due to their ability to alleviate pain in mammals. […] Exptl. Biol. Med. 95,729 (1957)].

[2] = target: T1, nitrendipine binding (ventricle membranes) (Rattus norvegicus, UniProt P22002); test: nitrendipine binding assay (calcium ion antagonism), [3H]-nitrendipine, rat heart ventricle membranes; parameters: species or system Male Wistar rats; conditions: 1 h, pH 7.4, 25° C., one hour; for Increase in [3H]-nitrendipine binding (%) at 20 µM: concentration 2.0 (moles) × 10^-5
T1 construct: These resuspension and recentrifugation steps are repeated twice more to wash the ventricle membranes; from tissue; host or cells: heart ventricle membranes of male Wistar rats
T1 sequence (P22002 whole entry, other chains not shown): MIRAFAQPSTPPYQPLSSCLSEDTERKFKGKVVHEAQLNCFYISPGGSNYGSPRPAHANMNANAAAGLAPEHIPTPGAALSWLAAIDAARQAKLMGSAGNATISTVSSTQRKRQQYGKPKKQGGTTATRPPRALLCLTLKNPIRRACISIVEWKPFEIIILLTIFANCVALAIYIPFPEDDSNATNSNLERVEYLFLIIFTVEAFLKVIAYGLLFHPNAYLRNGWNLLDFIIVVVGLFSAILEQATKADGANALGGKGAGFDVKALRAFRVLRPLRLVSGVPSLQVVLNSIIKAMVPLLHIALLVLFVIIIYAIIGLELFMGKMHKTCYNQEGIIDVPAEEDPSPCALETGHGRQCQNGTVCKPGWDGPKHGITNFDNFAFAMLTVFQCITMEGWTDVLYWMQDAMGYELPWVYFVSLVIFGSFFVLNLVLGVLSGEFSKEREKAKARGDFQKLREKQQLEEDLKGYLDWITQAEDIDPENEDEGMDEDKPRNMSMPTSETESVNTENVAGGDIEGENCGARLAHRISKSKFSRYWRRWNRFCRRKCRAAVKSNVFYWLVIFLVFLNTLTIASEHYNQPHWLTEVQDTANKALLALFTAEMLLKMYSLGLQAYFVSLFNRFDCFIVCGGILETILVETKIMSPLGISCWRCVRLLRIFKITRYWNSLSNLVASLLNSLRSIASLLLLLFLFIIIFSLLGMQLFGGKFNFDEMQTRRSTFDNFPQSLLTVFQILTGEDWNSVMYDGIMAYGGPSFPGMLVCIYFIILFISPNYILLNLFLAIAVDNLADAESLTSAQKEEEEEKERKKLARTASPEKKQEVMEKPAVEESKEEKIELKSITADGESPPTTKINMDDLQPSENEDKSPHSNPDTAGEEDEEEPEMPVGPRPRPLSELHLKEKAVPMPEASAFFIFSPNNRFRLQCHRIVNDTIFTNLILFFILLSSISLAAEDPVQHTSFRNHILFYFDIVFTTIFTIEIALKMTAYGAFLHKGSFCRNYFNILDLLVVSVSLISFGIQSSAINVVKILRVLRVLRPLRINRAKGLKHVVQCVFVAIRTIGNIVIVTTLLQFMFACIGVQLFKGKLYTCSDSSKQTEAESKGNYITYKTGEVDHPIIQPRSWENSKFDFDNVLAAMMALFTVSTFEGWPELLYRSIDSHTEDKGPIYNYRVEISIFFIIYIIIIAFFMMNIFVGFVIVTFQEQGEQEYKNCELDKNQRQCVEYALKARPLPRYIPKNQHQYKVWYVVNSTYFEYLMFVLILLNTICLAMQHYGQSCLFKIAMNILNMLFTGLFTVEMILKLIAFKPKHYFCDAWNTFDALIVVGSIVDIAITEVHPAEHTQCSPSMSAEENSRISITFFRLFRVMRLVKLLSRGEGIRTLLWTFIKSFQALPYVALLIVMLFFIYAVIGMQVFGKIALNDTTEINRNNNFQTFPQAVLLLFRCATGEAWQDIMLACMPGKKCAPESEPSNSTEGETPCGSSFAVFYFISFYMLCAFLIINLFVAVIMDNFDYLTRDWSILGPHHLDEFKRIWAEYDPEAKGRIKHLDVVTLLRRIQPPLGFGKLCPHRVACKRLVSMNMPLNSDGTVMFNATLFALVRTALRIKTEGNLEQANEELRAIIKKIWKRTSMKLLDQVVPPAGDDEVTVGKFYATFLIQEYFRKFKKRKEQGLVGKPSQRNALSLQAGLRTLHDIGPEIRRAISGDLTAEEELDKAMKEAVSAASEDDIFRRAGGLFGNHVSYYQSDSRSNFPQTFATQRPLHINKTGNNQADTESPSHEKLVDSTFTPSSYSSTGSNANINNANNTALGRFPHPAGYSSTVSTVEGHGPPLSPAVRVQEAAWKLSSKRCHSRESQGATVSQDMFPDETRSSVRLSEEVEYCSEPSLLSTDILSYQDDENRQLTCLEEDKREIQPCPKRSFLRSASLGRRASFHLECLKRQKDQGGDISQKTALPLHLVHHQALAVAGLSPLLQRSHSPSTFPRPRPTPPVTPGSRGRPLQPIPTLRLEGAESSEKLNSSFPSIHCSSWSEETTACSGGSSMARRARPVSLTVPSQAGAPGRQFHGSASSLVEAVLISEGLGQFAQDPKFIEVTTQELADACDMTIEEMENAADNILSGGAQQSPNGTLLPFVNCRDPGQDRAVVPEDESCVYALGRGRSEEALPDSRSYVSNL
T1 sequence (P54290 25-945 partner limits assumed, other chains not shown): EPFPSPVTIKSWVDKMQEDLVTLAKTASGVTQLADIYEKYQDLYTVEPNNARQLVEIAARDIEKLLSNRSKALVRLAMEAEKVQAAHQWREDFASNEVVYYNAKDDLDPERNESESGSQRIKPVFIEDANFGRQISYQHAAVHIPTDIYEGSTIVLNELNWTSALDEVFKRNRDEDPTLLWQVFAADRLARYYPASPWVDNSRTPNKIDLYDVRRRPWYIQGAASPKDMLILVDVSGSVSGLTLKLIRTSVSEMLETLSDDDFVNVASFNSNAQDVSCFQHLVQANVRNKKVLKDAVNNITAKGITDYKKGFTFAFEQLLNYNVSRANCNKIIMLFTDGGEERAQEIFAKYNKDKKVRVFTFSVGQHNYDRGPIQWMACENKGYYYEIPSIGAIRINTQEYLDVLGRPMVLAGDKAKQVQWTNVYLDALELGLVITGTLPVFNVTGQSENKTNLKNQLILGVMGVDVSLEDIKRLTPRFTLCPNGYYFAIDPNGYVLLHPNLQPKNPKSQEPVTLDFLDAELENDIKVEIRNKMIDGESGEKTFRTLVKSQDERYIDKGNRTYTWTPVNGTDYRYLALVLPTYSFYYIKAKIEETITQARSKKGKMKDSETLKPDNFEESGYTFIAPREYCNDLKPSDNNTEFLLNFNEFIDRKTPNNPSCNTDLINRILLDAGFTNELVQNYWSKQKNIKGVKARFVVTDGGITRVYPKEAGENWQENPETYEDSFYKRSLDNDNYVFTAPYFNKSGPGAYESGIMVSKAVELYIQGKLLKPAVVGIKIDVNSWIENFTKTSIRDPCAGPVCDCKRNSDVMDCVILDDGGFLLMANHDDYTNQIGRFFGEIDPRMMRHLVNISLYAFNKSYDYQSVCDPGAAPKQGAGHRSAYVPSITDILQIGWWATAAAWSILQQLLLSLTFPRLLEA
T1 sequence (P54290 946-1091 partner limits assumed, other chains not shown): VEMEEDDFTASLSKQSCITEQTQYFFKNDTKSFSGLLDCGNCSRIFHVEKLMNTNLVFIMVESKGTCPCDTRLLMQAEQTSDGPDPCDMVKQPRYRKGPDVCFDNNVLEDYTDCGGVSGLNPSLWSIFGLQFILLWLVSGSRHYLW
Method: The compounds of the present invention are also useful as calcium ion antagonists which are useful to control cardiovascular activities, including potential antihypertensive activity. Calcium ion antagonism is measured in the nitrendipine binding assay.
The nitrendipine binding assay is carried out in the following manner. The reagents employed are (1) 0.5 M tris Buffer, pH 7.4, prepared by combining 66.1 g of Tris HCl, 9.7 g of Tris base in 1 liter of distilled water and thereafter making a 1:10 dilution in distilled water; (2) [5-methyl-^3H]-Nitrendipine (70-81 Ci/mmol, obtained from New England Nuclear; and (3) Nifedipine. Tissue is prepared as follows. Male Wistar rats are killed by decapitation, hearts are removed and the ventricles are dissected away from the aorta and aortic tissue. The ventricles are rinsed and homogenized in 19 volumes of ice-cold 0.05 M Tris buffer, pH 7.4 using a Tekmar homogenizer. The homogenate is filtered through four layers of cheese cloth and centrifuged at 1,000 g for 10 minutes. The supernatant is decanted and recentrifuged at 48,000 g for 20 minutes. The resulting pellet is resuspended in the original volume of Tris buffer and recentrifuged at 48,000 g for 20 minutes. These resuspension and recentrifugation steps are repeated twice more to wash the ventricle membranes. The final pellet is resuspended in the original volume of 0.05 M Tris buffer. The assay itself employs 500 ul of ventricle membrane suspension; 50 ul of 0.5 M Tris buffer, pH 7.4; […] [^3 H]-nitrendipine; 20 μl of candidate drug; 380 μl of water in a test tube and is carried out in a darkened room. The test tubes are incubated for one hour at 25° C. […] The filters are washed three times with 5 ml of ice-cold 0.05 M Tris buffer, pH 7.4 and counted in 10 ml of Liquiscint scintillation cocktail. Specific binding is determined by the difference of total binding and binding in the presence of 0.1 μM nifedipine and is roughly 70-75% of the total binding. […] IC50 values for the competing drug are calculated by log-probit analysis of the data.

SMILES | Inhibition in Writhing (%) ([1]; 20 mg/kg of body weight) | Increase in [3H]-nitrendipine binding (%) at 20 µM [2] | Inhibition in Writhing (%) ([1]; 15.1 mg/kg of body weight) | Increase in [3H]-nitrendipine binding (%) at 10 µM ([2]; concentration 1.0 (moles) × 10^-5, standard)
CON1C(=O)N(CCN(C)C)c2ccccc2CC1c1ccccc1 (racemic) [(±) -1-[2-(N,N-dimethylamino)ethyl]-3-methoxy-4-phenyl-1,3,4,5-tetrahydro-2H-1,3-benzodiazepine-2-one] | 37% | 27.6% | – | –
CN1CC[C@@]23CCCC[C@@H]2[C@@H]1Cc1ccc(O)cc13 [dextrorphan, reference compound] | – | – | 50% | –
CON1C(=O)N(CCCN(C)C)c2ccccc2CC1c1ccccc1 (racemic) [(±) -1-[3-(N,N-Dimethylamino)propyl]-3-methoxy-4-phenyl-1,3,4,5-tetrahydro-2H-1,3-benzodiazepine-2-one] | 37% | 25.7% | – | –
COc1ccc([C@@H]2Sc3ccccc3N(CCN(C)C)C(=O)[C@@H]2OC(C)=O)cc1 [diltiazem, reference compound] | – | – | – | 85%
